{
  "source": "patent US20100104511A1",
  "about": "“METHODS AND COMPOSITIONS USING CHELATOR-ANTIBODY CONJUGATES” (priority 2006, published 2010)",
  "assay_in_all_cases": "Apoptosis by Annexin-V-Fluos staining and flow cytometry",
  "key": {"H3255 cells": {"tested_on": "H3255 cells", "details": "H3255, 10 μM, 72 hours", "experimental": "(§1) In vitro Analysis of Apoptosis. […] The cells were washed in PBS. Cell suspension was then stained with Annexin-V-Fluos (Roche Diagnostics, Mannheim, Germany) for 30 minutes before labeled cells were quantitated by flow cytometry (EpicsXL; Beckman Coulter, MarmiMiami, Fla., USA)."}, "H441 cells": {"tested_on": "H441 cells", "details": "H441, 10 μM, 72 hours", "experimental": "as §1"}, "MDA-MB-231 cells": {"tested_on": "MDA-MB-231 cells", "details": "MDA-MB-231, 10 μM, 72 hours", "experimental": "as §1"}},
  "data": [
    {"smiles": "COc1cc2ncnc(Nc3ccc(F)c(Cl)c3)c2cc1OCCCN1CCOCC1", "note": "[gefitinib]", "values": [
      {"measurement": "apoptosis percentage after deducting DMSO control", "setting": "H3255 cells", "value": 25.86, "unit": "%"},
      {"measurement": "apoptosis percentage after deducting DMSO control", "setting": "H441 cells", "value": 8.13, "unit": "%"},
      {"measurement": "apoptosis percentage after deducting DMSO control", "setting": "MDA-MB-231 cells", "value": 6.92, "unit": "%"}
    ]}
  ]
}
